Experimental data: patent US10130590B2, “Methods of treating cancer with atovaquone-related compounds” (DANA-FARBER CANCER INSTITUTE, INC., priority 2013, dated 2018)

System: non-malignant peripheral blood mononuclear cells (PBMC)
Experiment: Cell viability (Cell Titer Glo), PBMC
Type: cell-based
Conditions: 72 hours, healthy donors
Procedure: Mouse embryonic fibroblasts (MEFs) were cultured in DMEM+10% FBS. TSC2-null (see, Zhang et al. J Clin Invest. 2003; 112(8):1223-1233) and REDD1-null (see, Sofer et al. Mol. Cell. Biol. July 2005 vol. 25 no. 14 5834-5845) MEFs, along with MEFs from the littermate controls, were kind gifts from Dr. John Blenis and Dr. Leif Ellisen, respectively. HEL (see, Iwama et al. Mol. Cell. Biol. June 1999 vol. 19 no. 6 3940-3950) was a kind gift of Dr. Daniel G. Tenen and grown in RPMI-1640+10% FBS. OCI-AML2 and OCI-AML3 (see, Grunberger et al. Blood Dec. 1, 2003 vol. 102 no. 12 4153-4158), and MOLM-13 (German Collection of Microorganisms and Cell Cultures (DSMZ, Braunschweig, Germany)) were kind gifts of Dr. James D. Griffin and grown in RPMI-1640+10% FBS. MM.1S (ATCC) was a kind gift of Dr. Kenneth C. Anderson and grown in RPMI-1640+10% FBS. SET2 (see, Koppikar et al. Nature 489, 155-159 (6 Sep. 2012)) was a kind gift of Dr. Ross L. Levine and grown in RPMI-1640+10% FBS. HL60 (ATCC) was a kind gift of Dr. James D. Griffin and grown in RPMI-1640+10% FBS. […] Molecular Pharmacology 78(5):903-908; and Walker S R, et al. (2009) Reciprocal effects of STAT5 and STAT3 in breast cancer. Molecular Cancer Research: MCR 7(6):966-976). Peripheral blood mononuclear cells (PBMCs) were isolated from healthy donors by Ficoll density gradient centrifugation and maintained in RPMI-1640+10% FBS. […]

O=C1C(O)=C([C@H]2CC[C@H](c3ccc(Cl)cc3)CC2)C(=O)c2ccccc21 [atovaquone, trans-2-[4-(4-chlorophenyl)cyclohexyl]-3-hydroxy-1,4-naphthalenedione]
viability of PBMC: relatively preserved
